Drawing on US9943506B2, “BCL6 inhibitors as anticancer agents” (Cornell University, priority 2013, dated 2018), this text covers GI50 for 16 compounds.

Holding throughout (type): cell-based
Assay [1] has as its system Ly3 DLBCL cells. The experiment in a line: Growth inhibition of DLBCL cells, Ly3. On the procedure: (§1) 50,000 cells per well were treated for 48 hours with different concentrations of the compounds in 96 well plates, using DMSO as a control. Then, viability was determined with Cell Titer Blue™ (Promega) and growth inhibition was calculated as the percentage of viable cells with respect to cells treated with DMSO alone. GI50 values were determined by dose-response curves.
(§2) 293T cells were grown in Dulbecco's modified Eagles medium supplemented with 10% fetal bovine serum (FBS) (Gemini Bio-Products, Woodland, Calif.) and 1% penicillin-streptomycin. DLBCL cell lines OCI-Ly1, OCI-Ly1-B50, OCI-Ly7, OCI-Ly10 and OCI-Ly19 were grown in 80% Iscove's medium, 20% FBS and penicillin G/streptomycin. DLBCL cell lines Toledo, Farage, SU-DHL4, DOHH-2, SC-1, RCK8, TMD8, HBL-1, Ly3, Karpas 422 and SU-DHL6 were cultured in 90% RPMI medium, 10% FBS, 2 mM glutamine, 10 mM Hepes and penicillin G/streptomycin. All cell lines were cultured at 37° C. in a humidified atmosphere of 5% CO2.

Assay [2] has as its system Ly7 DLBCL cells. The assay can be described thus: Growth inhibition of DLBCL cells, Ly7. The method, then: as §1, §2
Assay [3] deals with SUDHL6 DLBCL cells. The experiment in a line: Growth inhibition of DLBCL cells, SUDHL6. Conditions: Homo sapiens, SU-DHL-6. On the procedure: as §1, §2
Assay [4] deals with Karpas 422 DLBCL cells. The assay can be described thus: Growth inhibition of DLBCL cells, Karpas 422. The following applies: Homo sapiens. On the procedure:
as §1, §2

Assay [5] relates to Toledo DLBCL cells. The experiment in a line: Growth inhibition of DLBCL cells, Toledo. The following applies: Homo sapiens. The method, then:
as §1, §2

Assay [6] relates to Ly1B50 DLBCL cells. The experiment in a line: Growth inhibition of DLBCL cells, Ly1B50. On the procedure:
as §1, §2

Assay [7] has as its system Ly1 DLBCL cells. The assay can be described thus: Growth inhibition of DLBCL cells, Ly1. Conditions: Table 4; Bcl6 dependent; read-out: GI 50 Ly1. The method, then: as §1, §2
Assay [8] deals with WSU-DLCL2 DLBCL cells. The experiment in a line: Growth inhibition of DLBCL cells, WSU-DLCL2. Conditions: Homo sapiens, WSUDLCL2. On the procedure:
as §1

Assay [9] relates to Ly10 DLBCL cells. The experiment in a line: Growth inhibition of DLBCL cells, Ly10. Conditions: Table 2, BCL-6 dependent, 48 hours. The method, then: as §1, §2
Where [10] appears, read: Table 4, Bcl6 dependent, read-out: GI 50 Ly3.
Where [11] appears, read: Table 4, Bcl6 dependent, read-out: GI 50 Ly7.
Setting [12] is: Table 4, Bcl6 dependent, read-out: GI 50 SUDHL6.
Where [13] appears, read: Table 4, Bcl6 independent, read-out: GI 50 K422.
Where [14] appears, read: Table 4, Bcl6 independent, read-out: GI 50 Toledo.
Where [15] appears, read: Table 4, Bcl6 independent, read-out: GI 50 Ly1B50.
Where [16] appears, read: Table 4, Bcl6 independent, read-out: GI 50 WSUDLCL2.
The mark [17] stands for this setting: Table 2, BCL-6 dependent, 48 hours.
The mark [18] stands for this setting: Table 2, BCL-6 dependent, 48 hours, read-out: GI50 SUDH6.
The mark [19] stands for this setting: Table 2, BCL-6 independent, 48 hours, read-out: GI50 Karpas 422.
The mark [20] stands for this setting: 48 h, Table 2, BCL-6 independent.
Where [21] appears, read: Table 2, BCL-6 independent, 48 hours.
[22] abbreviates: Table 7, BCL6 dependent, read-out: GI50 SUDHL6.
Setting [23] is: Table 8, Bcl-6 dependent, read-out: GI50 SUDH6.
The mark [24] stands for this setting: Table 8, Bcl-6 independent, read-out: GI50 Karpas 422.

Read-outs that look alike come from different tables or passages of the source.

`Cc1cccc(COC(=O)CN2C(=O)/C(=C3\SC(=S)N(CCC(=O)O)C3=O)c3cc(Cl)ccc32)c1` [Compound 374]: the GI50 in [1] (setting [10]) is > 125 µM; in [2] (setting [11]), > 125 µM; in assay [3] (setting [12]) it was 48 ± 17 µM; in assay [4] (setting [13]), > 125 µM; in assay [5] (setting [14]), > 125 µM; in assay [6] (setting [15]), > 125 µM. Besides, the GI50 in assay [7] is > 125 µM; in [8] (setting [16]) it was 99 ± 20 µM.

On to `O=C(O)CCN1C(=O)/C(=C2/C(=O)N(CC(=O)OCc3ccc(C(F)(F)F)cc3)c3ccc(Cl)cc32)SC1=S` [Compound 375], for which the GI50 was > 125 µM in [1] (setting [10]); > 125 µM in [2] (setting [11]); 29 ± 14 µM in assay [3] (setting [12]); > 125 µM in [4] (setting [13]); > 125 µM in assay [5] (setting [14]); > 125 µM in assay [6] (setting [15]). Besides, the GI50 in [7] and in assay [8] (setting [16]) was > 125 µM each time.

In the case of `O=C(O)CCN1C(=O)/C(=C2/C(=O)N(CC(=O)OCc3ccc(F)cc3)c3ccc(Cl)cc32)SC1=S` [Compound 377], the GI50 in assay [1] (setting [10]) was > 125 µM; in assay [2] (setting [11]), > 125 µM; in assay [3] (setting [12]), 104 µM; in assay [4] (setting [13]), > 125 µM; in assay [5] (setting [14]) it was > 125 µM; in assay [6] (setting [15]), > 125 µM. The GI50 in [7] and in assay [8] (setting [16]) was > 125 µM in each case.

`O=C(O)CCN1C(=O)/C(=C2/C(=O)N(CC(=O)OCc3cccc(F)c3)c3ccc(Cl)cc32)SC1=S` [Compound 378]: the GI50 in assay [1] (setting [10]) was > 125 µM; in assay [2] (setting [11]) it was > 125 µM; in assay [3] (setting [12]), 53.4 µM; in [4] (setting [13]) it was > 125 µM; in assay [5] (setting [14]), > 125 µM; in assay [6] (setting [15]), > 125 µM. Also, the GI50 in assay [7] and in assay [8] (setting [16]) was > 125 µM throughout.

In the case of `O=C(O)CCN1C(=O)/C(=C2/C(=O)N(CC(=O)OCc3cccc(C(F)(F)F)c3)c3ccc(Cl)cc32)SC1=S` [Compound 380], the GI50 turned out to be 71 ± 18 µM in assay [1] (setting [10]); 94 ± 19 µM in assay [2] (setting [11]); 18 ± 7 µM in assay [3] (setting [12]); 69 ± 4 µM in assay [4] (setting [13]); 93 ± 23 µM in assay [5] (setting [14]); 68 µM in assay [6] (setting [15]). For the same compound, the GI50 turned out to be 106 ± 20 µM in assay [7] and 67 ± 12 µM in assay [8] (setting [16]).

`C[C@@H](OC(=O)CN1C(=O)/C(=C2\SC(=S)N(CCC(=O)O)C2=O)c2cc(Cl)ccc21)c1ccccc1` [Compound 381]: the GI50 in assay [1] (setting [10]) is > 125 µM; in [2] (setting [11]) it was > 125 µM; in assay [3] (setting [12]), 22 ± 8 µM; in assay [4] (setting [13]) it was > 125 µM; in [5] (setting [14]), > 125 µM; in [6] (setting [15]), > 125 µM. The GI50 in assay [7] and in assay [8] (setting [16]) was > 125 µM in each case.

Turning to `O=C(O)CN1C(=O)/C(=C2/C(=O)Nc3ccc(Cl)cc32)SC1=S` [Compound 2031, (Z)-2-(5-(5-Chloro-2-oxoindolin-3-ylidene)-4-oxo-2-thioxothiazolidin-3-yl)acetic acid], the GI50 in assay [1] (setting [17]) is > 40 µM; in [2] (48 h, Table 2, BCL-6 dependent) it was > 40 µM; in assay [9], > 40 µM; in assay [3] (setting [18]), > 40 µM; in [4] (setting [19]), > 40 µM; in [5] (setting [20]) it was > 40 µM. Besides, the GI50 in [6] (setting [21]) was > 40 µM.

As to `O=C(O)CN1C(=O)/C(=C2/C(=O)Nc3ccc(F)cc32)SC1=S` [Compound 2033, (Z)-2-(5-(5-Fluoro-2-oxoindolin-3-ylidene)-4-oxo-2-thioxothiazolidin-3-yl)acetic acid], the GI50 in assay [1] (setting [17]) is > 40 µM; in assay [2] (48 h, Table 2, BCL-6 dependent) it was > 40 µM; in assay [9], > 40 µM; in [3] (setting [18]) it was > 40 µM; in [4] (setting [19]), > 40 µM; in [5] (setting [20]) it was > 40 µM. Moreover, in [6] (setting [21]), the GI50 is > 40 µM.

On to `O=C(O)CN1C(=O)/C(=C2/C(=O)Nc3c(F)cccc32)SC1=S` [Compound 2035, (Z)-2-(5-(7-Fluoro-2-oxoindolin-3-ylidene)-4-oxo-2-thioxothiazolidin-3-yl)acetic acid], for which the GI50 in assay [1] (setting [17]) was > 40 µM; in assay [2] (48 h, Table 2, BCL-6 dependent) it was > 40 µM; in assay [9] it was > 40 µM; in [3] (setting [18]) it was > 40 µM; in assay [4] (setting [19]), > 40 µM; in assay [5] (setting [20]), > 40 µM. In addition, the GI50 in [6] (setting [21]) was > 40 µM.

On to `O=C(O)CN1C(=O)/C(=C2/C(=O)Nc3c(Cl)cccc32)SC1=S` [Compound 2037, (Z)-2-(5-(7-Chloro-2-oxoindolin-3-ylidene)-4-oxo-2-thioxothiazolidin-3-yl)acetic acid], for which the GI50 in assay [1] (setting [17]) was > 40 µM; in assay [2] (48 h, Table 2, BCL-6 dependent) it was > 40 µM; in assay [9], > 40 µM; in [3] (setting [18]), > 40 µM; in assay [4] (setting [19]), > 40 µM; in [5] (setting [20]), > 40 µM. In addition, the GI50 in assay [6] (setting [21]) is > 40 µM.

`O=C(O)CN1C(=O)/C(=C2/C(=O)Nc3c(Cl)cc(Cl)cc32)SC1=S` [Compound 2039, (Z)-2-(5-(5,7-Dichloro-2-oxoindolin-3-ylidene)-4-oxo-2-thioxothiazolidin-3-yl)acetic acid]: the GI50 is > 40 µM in [1] (setting [17]); > 40 µM in [2] (48 h, Table 2, BCL-6 dependent); > 40 µM in [9]; > 40 µM in assay [3] (setting [18]); > 40 µM in assay [4] (setting [19]); > 40 µM in assay [5] (setting [20]). Also, the GI50 in [6] (setting [21]) was > 40 µM.

Consider `O=C(O)CN1C(=O)/C(=C2/C(=O)Nc3ccc(Br)cc32)SC1=S` [Compound 2041, (Z)-2-(5-(5-Bromo-2-oxoindolin-3-ylidene)-4-oxo-2-thioxothiazolidin-3-yl)acetic acid], for which the GI50 is > 40 µM in [1] (setting [17]); > 40 µM in assay [2] (48 h, Table 2, BCL-6 dependent); > 40 µM in assay [9]; > 40 µM in [3] (setting [18]); > 40 µM in assay [4] (setting [19]); > 40 µM in [5] (setting [20]). In assay [6] (setting [21]), the GI50 was > 40 µM.

On to `O=C(CN1C(=O)C(=O)c2cc(Cl)ccc21)OCc1ccccc1` [Compound 2071], for which the GI50 in assay [1] (Table 8, Bcl-6 dependent) was > 40 µM; in assay [2] (Table 7, BCL6 dependent) it was 53 µM; in assay [2] (Table 8, Bcl-6 dependent), 26 ± 1 µM; in [3] (setting [22]), 35 µM; in assay [3] (setting [23]) it was 10 ± 1 µM; in assay [4] (setting [24]), > 40 µM. For the same compound, the GI50 was > 125 µM in assay [5] (Table 7, BCL6 independent); > 40 µM in assay [5] (Table 8, Bcl-6 independent); > 40 µM in [8] (Table 8, Bcl-6 independent).

Regarding `O=C(CN1C(=O)C(=O)c2cc(F)ccc21)OCc1ccccc1` [Compound 2073], the GI50 is > 40 µM in [1] (Table 8, Bcl-6 dependent); 30 µM in assay [2] (Table 7, BCL6 dependent); 36 ± 7 µM in assay [2] (Table 8, Bcl-6 dependent); 30 µM in assay [3] (setting [22]); 17 ± 1 µM in [3] (setting [23]); > 40 µM in [4] (setting [24]). Also, the GI50 in assay [5] (Table 7, BCL6 independent) is 40 µM; in assay [5] (Table 8, Bcl-6 independent) it was > 40 µM; in [8] (Table 8, Bcl-6 independent), > 40 µM.

For the compound `O=C(O)CCN1C(=O)/C(=C2/C(=O)N(CC(=O)OCc3ccccc3)c3ccc(F)cc32)SC1=S` [Compound 2097], the GI50 is > 30 µM in [1] (Table 8, Bcl-6 dependent); > 30 µM in assay [2] (Table 8, Bcl-6 dependent); > 30 µM in assay [3] (setting [23]); > 30 µM in assay [4] (setting [24]); > 30 µM in assay [5] (Table 8, Bcl-6 independent); > 30 µM in assay [8] (Table 8, Bcl-6 independent).

Consider `O=C(O)CCN1C(=O)/C(=C2/C(=O)N(CC(=O)OCc3ccccc3)c3ccc(Br)cc32)SC1=S` [Compound 2101], for which the GI50 is > 30 µM in assay [1] (Table 8, Bcl-6 dependent); > 30 µM in assay [2] (Table 8, Bcl-6 dependent); > 30 µM in assay [3] (setting [23]); > 30 µM in assay [4] (setting [24]); > 30 µM in [5] (Table 8, Bcl-6 independent); > 30 µM in [8] (Table 8, Bcl-6 independent).
